The results in this text go back to paper PMC11129182, “Development of Inhibitors, Probes, and PROTAC Provides a Complete Toolbox to Study PARK7 in the Living Cell” (Journal of Medicinal Chemistry, 2024).

The assay deals with T1, PARK7 (Homo sapiens, UniProt Q99497).
T1 sequence (Q99497 1-189): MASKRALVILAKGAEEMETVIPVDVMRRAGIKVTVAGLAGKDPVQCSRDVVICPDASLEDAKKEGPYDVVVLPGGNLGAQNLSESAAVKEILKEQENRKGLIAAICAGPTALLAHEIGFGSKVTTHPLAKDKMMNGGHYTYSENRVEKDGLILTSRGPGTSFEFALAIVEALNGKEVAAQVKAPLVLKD
Nature of the assay: High-throughput screen of the crude compound library, PARK7 fluorescence polarization (FP) assay with FP reagent JYQ-107. The conditions noted are these: read-out: HTS FP assay %Inhibition (1.25 µM). In kind it is biochemical.

Where [1] appears, read: 1.25 µM, crude compound library, FP reagent JYQ-107.

The term inhibition denotes the change of the read-out against control, counted positive when it falls.

Each structure is given as a SMILES string. Read-outs that look alike come from different tables or passages of the source.

Regarding `N#CN1CC[C@@H](C(=O)Nc2nc3c(s2)CN(C(=O)c2ccc(CBr)cc2)CC3)C1` [compound 414], the inhibition at 1.25 µM under setting [1] is -19.6%.

As to `C#CCCCC(=O)N1CCc2nc(NC(=O)[C@@H]3CCN(C#N)C3)sc2C1` [compound 416], the inhibition at 1.25 µM under setting [1] was determined as 75.5%.

Take `N#CN1CC[C@@H](C(=O)Nc2nc3c(s2)CN(C(=O)c2nccc4ccccc24)CC3)C1` [compound 417]: the inhibition at 1.25 µM under setting [1] was 82.2%.

For the compound `Cc1c(Br)cccc1C(=O)N1CCc2nc(NC(=O)[C@@H]3CCN(C#N)C3)sc2C1` [compound 418], under setting [1], the inhibition at 1.25 µM turned out to be 81%.

Regarding `CC(=O)CCCCC(=O)N1CCc2nc(NC(=O)[C@@H]3CCN(C#N)C3)sc2C1` [compound 419], under setting [1], the inhibition at 1.25 µM is 74%.

On to `Cc1ccc(Br)c(C(=O)N2CCc3nc(NC(=O)[C@@H]4CCN(C#N)C4)sc3C2)c1` [compound 420], for which the inhibition at 1.25 µM under setting [1] is 83.3%.

As to `N#CN1CC[C@@H](C(=O)Nc2nc3c(s2)CN(C(=O)c2sccc2Br)CC3)C1` [compound 421], the inhibition at 1.25 µM under setting [1] was found to be 79.7%.

As for `N#CN1CC[C@@H](C(=O)Nc2nc3c(s2)CN(C(=O)c2ccc(NNC(=O)OCC4c5ccccc5-c5ccccc54)cc2)CC3)C1` [compound 422], under setting [1], the inhibition at 1.25 µM was 78.9%.

For the compound `N#CN1CC[C@@H](C(=O)Nc2nc3c(s2)CN(C(=O)Cn2cc(C=O)c4ccccc42)CC3)C1` [compound 423], the inhibition at 1.25 µM is 72.5%.

`N#CN1CC[C@@H](C(=O)Nc2nc3c(s2)CN(C(=O)c2ccc(C=O)cc2)CC3)C1` [compound 424]: the inhibition at 1.25 µM under setting [1] stood at 76.8%.

In the case of `N#CN1CC[C@@H](C(=O)Nc2nc3c(s2)CN(C(=O)c2cccc4c2-c2ccccc2C4)CC3)C1` [compound 425], under setting [1], the inhibition at 1.25 µM stood at 84%.

Turning to `N#CN1CC[C@@H](C(=O)Nc2nc3c(s2)CN(C(=O)c2cc(C=O)ccc2O)CC3)C1` [compound 427], the inhibition at 1.25 µM under setting [1] came out at 63.9%.

For the compound `CCCN(CCC)S(=O)(=O)c1ccc(C(=O)N2CCc3nc(NC(=O)[C@@H]4CCN(C#N)C4)sc3C2)cc1` [compound 428], the inhibition at 1.25 µM under setting [1] was found to be 85.1%.

`CN1C(=O)C[C@@H](C(=O)N2CCc3nc(NC(=O)[C@@H]4CCN(C#N)C4)sc3C2)[C@@H]1c1cccnc1` [compound 429]: under setting [1], the inhibition at 1.25 µM worked out at 59.5%.

As for `N#CN1CC[C@@H](C(=O)Nc2nc3c(s2)CN(C(=O)CCc2ccccc2Br)CC3)C1` [compound 430], under setting [1], the inhibition at 1.25 µM came to 87.5%.

Consider `CC(=O)CCCC(=O)N1CCc2nc(NC(=O)[C@@H]3CCN(C#N)C3)sc2C1` [compound 431], for which the inhibition at 1.25 µM under setting [1] was found to be 72.4%.

For the compound `N#CN1CC[C@@H](C(=O)Nc2nc3c(s2)CN(C(=O)c2ccccc2C=O)CC3)C1` [compound 432], under setting [1], the inhibition at 1.25 µM came to 57.9%.

Turning to `N#CN1CC[C@@H](C(=O)Nc2nc3c(s2)CN(C(=O)c2cccc(C=O)c2)CC3)C1` [compound 433], the inhibition at 1.25 µM under setting [1] was found to be 81.4%.

In the case of `CCCCNc1ccc(C(=O)N2CCc3nc(NC(=O)[C@@H]4CCN(C#N)C4)sc3C2)cc1` [compound 434], the inhibition at 1.25 µM under setting [1] stood at 81.3%.

With `N#CN1CC[C@@H](C(=O)Nc2nc3c(s2)CN(C(=O)CCC2CCCCC2)CC3)C1` [compound 435], the inhibition at 1.25 µM under setting [1] was 78.3%.

For the compound `N#CN1CC[C@@H](C(=O)Nc2nc3c(s2)CN(C(=O)CN2C(=O)c4ccccc4C2=O)CC3)C1` [compound 436], the inhibition at 1.25 µM under setting [1] was found to be 72.4%.

As to `COc1cc(CC(=O)N2CCc3nc(NC(=O)[C@@H]4CCN(C#N)C4)sc3C2)ccc1O` [compound 437], the inhibition at 1.25 µM under setting [1] was 73.6%.

For `N#CN1CC[C@@H](C(=O)Nc2nc3c(s2)CN(C(=O)CCc2ccc(O)cc2)CC3)C1` [compound 438], under setting [1], the inhibition at 1.25 µM was 74.4%.

Consider `CNc1ccc(C(=O)N2CCc3nc(NC(=O)[C@@H]4CCN(C#N)C4)sc3C2)cc1` [compound 439], for which the inhibition at 1.25 µM under setting [1] worked out at 73.3%.

Regarding `N#CN1CC[C@@H](C(=O)Nc2nc3c(s2)CN(C(=O)c2cc([N+](=O)[O-])ccc2Br)CC3)C1` [compound 441], under setting [1], the inhibition at 1.25 µM was 81.4%.

Take `N#CN1CC[C@@H](C(=O)Nc2nc3c(s2)CN(C(=O)c2c(F)c(F)c(O)c(F)c2F)CC3)C1` [compound 442]: the inhibition at 1.25 µM under setting [1] turned out to be 51.4%.
